Here are results for 6 compounds from patent publication US11497726B2, “Topical therapy for the treatment of cervical intraepithelial neoplasia (CIN) and cervical cancer using nanoparticles of taxanes” (DFB SORIA, LLC, priority 2018, dated 2022).

For one series, the system named is high-grade CIN. To be noted: cited from earlier work.
A short description of series [1]: Specific surface area (SSA), BET isotherm. In kind it is physicochemical. The method, then:
(§1) As used herein, the “specific surface area (SSA)” is the total surface area of the taxane nanoparticle per unit of taxane mass as measured by the Brunauer-Emmett-Teller (“BET”) isotherm by the following method: a known mass between 200 and 300 mg of the analyte is added to a 30 mL sample tube. […] The automated test is then carried out using the BETWIN® software package and the surface area of each sample is subsequently calculated. The bulk density measurement can be conducted by pouring the taxane nanoparticles into a graduated cylinder without tapping at room temperature, measuring the mass and volume, and calculating the bulk density.

Series [2] can be described thus: Bulk density (not tapped). In kind it is physicochemical. The method, then:
as §1

The next series has as its system Gottingen minipigs. Put plainly: Dermal toxicity study, 28 days, GLP. In kind it is in vivo. To be noted: topical, daily for 28 days. The protocol: The GLP-compliant study was conducted in Gottingen minipigs to characterize the toxicity of the formulations applied topically to 10% body surface area daily for 28 days. […] Reversibility of findings was also evaluated following a 2-week recovery period. Parameters evaluated included clinical observations, mortality and moribundity checks, dermal scoring, body weight, food consumption, eye examinations, test site photographs, electrocardiology, clinical pathology, bioanalysis and toxicokinetic evaluation, organ weights, macroscopic pathology and histopathology. There were no formulation-related effects on survival, clinical signs, dermal irritation, body weights, body weight gains, food consumption, ophthalmic findings, or cardiology parameters.

Series [3] in a line: Particle size of paclitaxel nanoparticle lots (ACCUSIZER 780). In kind it is physicochemical. The protocol: Instrument parameters: Max. Concentration: 9000 particles/mL, No. containers: 1, Sensor Range: Summation, Lower Detection Limit: 0.5 μm, Flow Rate: 30 mL/min, No. Analysis pulls: 4, Time between pulls: 1 sec, Pull volume: 10 mL, Tare Volume: 1 mL, Prime volume: 1 mL, Include First Pull: Not Selected.
Vortexed for 5-10 minutes and sonicated in a water batch for 1 minute.
Method: Filled a plastic bottle with filtered (0.22 μm) 0.1% w/w SDS solution and analyzed the Background.

Series [4] in a line: Crystal growth of paclitaxel nanoparticles, visual observation by light microscopy. The class given is physicochemical.
Series [5] can be described thus: Solubility of paclitaxel in various solvents (HPLC). In kind it is physicochemical.
Method: Step “d” was continued for each vial for a total of 48 hours.
The conditions of series [6]: methanol/water 15/85 (v/v), 37° C., pH 7, 75 rpm, cited from earlier work.
Another series concerns rabbit skin. To be noted: Draize rabbit skin test model; cited from earlier work.
The conditions of series [7]: summary statement on the cited study; cited from earlier work.
Setting [8] is: lot used in formulas listed in Table 3.
[9] abbreviates: lot used in formulas listed in Tables 16-19.

Like-named read-outs stand apart in the source and are kept apart here.

Take `CC(C)Cn1cnc2c(N)nc3ccccc3c21` [Imiquimod]: the tolerability entry with high-grade CIN (despite frequent adverse effects such as vaginal discharge, vulvar pain, fever, headache, and fatigue) is reported as “generally well-tolerated”. Also, the “efficacy in the treatment of high-grade CIN” value in the series with high-grade CIN (topically applied to the ectocervix) is on record as “some efficacy”.

In the case of `CC(=O)O[C@H]1C(=O)[C@@]2(C)[C@H]([C@H](OC(=O)c3ccccc3)[C@]3(O)C[C@H](OC(=O)[C@H](O)[C@@H](NC(=O)c4ccccc4)c4ccccc4)C(C)=C1C3(C)C)[C@]1(OC(C)=O)CO[C@@H]1C[C@@H]2O` [Paclitaxel nanoparticles, paclitaxel], the SSA in series [1] (setting [8]) was determined as 41.24 m^2/g; in series [1] (setting [9]), 26.72 m^2/g. In addition, the “bulk density (not-tapped)” value in series [2] (setting [8]) was 0.05 g/mL; in series [2] (setting [9]) it was 0.09 g/mL. Further, in the series on Gottingen minipigs, the “effect of the presence of the nanoparticles in the formulations on dermal irritation” value is listed as “negligible effect”. Besides, the “Particle size, Mean (number-weighted differential distribution)” value in series [3] (setting [8]) is listed as 0.861 μm; in series [3] (setting [9]) it was 0.83 μm. Also, the “Particle size, Median (number-weighted differential distribution)” value in series [3] (setting [8]) turned out to be 0.710 μm. For the same compound, the “Particle size, Mode (number-weighted differential distribution)” value in series [3] (setting [8]) came out at 0.572 μm. Further, the “Needle shaped crystals observed? (visual observation by light microscopy)” value (“Needle shaped crystals observed?” for short) in series [4] (in Aluminum sulfate 0.1-0.2% in water, 7 days, RT) is listed as “Yes, >5 μm, @”; in series [4] (in Ammonium lauryl sulfate 2% in water, 3 days, RT), “Yes, >5 μm @”; in series [4] (in Benzalkonium chloride (50%) 2% in water, 7 days & 21 days, RT) it was “No, <5 μm @”; in series [4] (in CARBOPOL ULTREZ 10 (with Ammonium hydroxide as neutralizer) 0.5% in water, 8 days & 21 days, RT), “No, <5 μm, @”; in series [4] (in Castor Oil 100%, 24 hrs & 9 days, RT), “No, <5 μm @”; in series [4] (in Dimethicone, 1000 cSt 100%, 24 hrs & 6 days, RT), “No, <5 μm @”. Besides, the “Needle shaped crystals observed?” value in series [4] (in FOMBLIN HC04 100%, 4, 7 & 13 days, RT) is on record as “No, <5 μm @”; in series [4] (in Hydroxyethyl cellulose 1% in water, 7 days, RT) it was “Yes, >5 μm, @”; in series [4] (in Hydroxypropyl methylcellulose 1% in water, 3 days, RT) it was “Yes, >5 μm @”; in series [4] (in Lecithin 1% in water, 24 hrs, RT), “Yes, >10 μm, @”; in series [4] (in Light Mineral Oil NF 100%, 3 days, RT & 40 C.), “No, <5 μm @”; in series [4] (in Magnesium nitrate 5% in water, 3 days, RT) it was “Yes, >5 μm @”. For the same compound, the “Needle shaped crystals observed?” value is on record as “Yes, >5 μm, @” in series [4] (in Mannitol 5% in water, 7 days, RT); “No, <5 μm @” in series [4] (in Mineral Oil USP (heavy) 100%, 3 days, RT & 40 C.); “Yes, >5 μm @” in series [4] (in PEG 400 10% in water, 22 days, RT & 60 C.); “Yes, >5 μm @” in series [4] (in Poloxamer 188 2% in water, 7 days, RT); “No, <5 μm @” in series [4] (in Poloxamer 407 2% in water, 5 & 7 days, RT); “Yes, <5 μm @” in [4] (in Polyoxyl 40 Hydrogenated Castor Oil (KOLLIPHOR RH40) 1% in water, 6 days, RT). The “Needle shaped crystals observed?” value in series [4] (in Polysorbate 80 0.5% in Saline, 7 days, RT & 60 C.) is reported as “Yes, >5 μm @”; in [4] (in Polysorbate 80 0.5% in water, 22 days, RT & 60 C.), “Yes, <5 μm @”; in [4] (in Povidone 1% in water, 7 days & 21 days, RT), “Yes, <5 μm @”; in series [4] (in Proline 3% in water, 7 days, RT), “Yes, >5 μm, @”; in series [4] (in Purified Water 100%, 5 days, RT & 60 C.), “Yes, >5 μm, @”; in series [4] (in ST-Cyclomethicone 5 NF 100%, 24 hrs & 13 days, RT), “No, <5 μm @”. Besides, the “Needle shaped crystals observed?” value in [4] (in Saline 0.9% NaCl in water, 7 days, RT & 60 C.) was “Yes, >10 μm, @”; in series [4] (in Sodium lauryl sulfate 2% in water, 7 days, RT) it was “Yes, >5 μm, @”; in [4] (in Sodium phosphate monobasic 0.75% in water, 7 days, RT), “Yes, >5 μm, @”; in series [4] (in Sorbitol 5% in water, 7 days, RT), “Yes, >5 μm, @”; in [4] (in Vitamin E TPGS 0.5% in water, 6 days, RT), “Yes, <5 μm @”; in series [4] (in Zinc acetate […] in water, 7 days, RT), “Yes, >5 μm, @”. In addition, the crystal growth entry in series [4] (in any of the hydrophobic carriers of Table 2) is given as “did not grow”; in series [4] (in aqueous solutions of benzalkonium chloride, CARBOPOL ULTREZ 10, or poloxamer 407), “did not grow”.

As to `CC(=O)O[C@H]1C(=O)[C@@]2(C)[C@H]([C@H](OC(=O)c3ccccc3)[C@]3(O)C[C@H](OC(=O)[C@H](O)[C@@H](NC(=O)c4ccccc4)c4ccccc4)C(C)=C1C3(C)C)[C@]1(OC(C)=O)CO[C@@H]1C[C@@H]2O` [Paclitaxel, paclitaxel], the “Paclitaxel Solubility at RT” value in [5] (in Benzyl Alcohol, NF) is reported as 17.02% w/w; in series [5] (in Diethylene Glycol Monoethyl Ether, NF (TRANSCUTOL P)) it was 33.10% w/w; in series [5] (in Diisopropyl Adipate (CERAPHYL 230)) it was 3.51% w/w; in series [5] (in Dimethyl Isosorbide) it was 38.22% w/w; in series [5] (in Hexylene Glycol), 4.07% w/w; in series [5] (in Isopropyl Myristate, NF), 0.048% w/w. For the same compound, the “Paclitaxel Solubility at RT” value stood at 0.32% w/w in series [5] (in Medium Chain Triglycerides, NF); 0.3 ppm in series [5] (in Mineral Oil, USP (heavy)); 22.30% w/w in series [5] (in Polyethylene Glycol 400, NF); 4.74% w/w in series [5] (in Propylene Carbonate); 0.88% w/w in series [5] (in Propylene Glycol, USP); 0.041% w/w in [5] (in Super Refined Oleic Acid, NF). In addition, in series [5] (in Super Refined Oleyl Alcohol, NF), the “Paclitaxel Solubility at RT” value worked out at 0.38% w/w. Also, the “solubility of paclitaxel in water” value in series [5] (in water, method of Example 1) is listed as “less than 0.05 ppm”.

`CC(=O)O[C@@]12CO[C@@H]1C[C@H](O)[C@@]1(C)C(=O)[C@H](O)C3=C(C)[C@@H](OC(=O)[C@H](O)[C@@H](NC(=O)OC(C)(C)C)c4ccccc4)C[C@@](O)([C@@H](OC(=O)c4ccccc4)[C@H]21)C3(C)C` [docetaxel nanoparticles, docetaxel]: the “dissolution rate, % dissolved in 30 minutes” value is reported as 9% in series [6] (nanoparticles made by milling) and 27% in [6] (nanoparticles made by the supercritical carbon dioxide method).

For `CCCCCCCCCCCCN1CCCCCC1=O` [laurocapram, 1-Dodecyl azacycloheptan-2-one], in the series on rabbit skin, the local skin irritation entry was “edema and erythema have been observed”.

Regarding Cyclomethicone, the “irritation to vaginal tissues” value in series [7] is recorded as “non-irritating”.
